{"source": "ChEMBL document CHEMBL6153025", "about": "“Multidrug-resistant bacteria quorum-sensing inhibitors: A particular focus on Pseudomonasaeruginosa” (Eur J Med Chem, 2025)", "key": {"Pseudomonas aeruginosa [1]": {"test_system": "Pseudomonas aeruginosa", "assay": "Antibiofilm activity against Pseudomonas aeruginosa PA14 assessed as reduction in biofilm formation at 16 ug/ml incubated for 2 to 4 hrs by crystal violet staining based analysis relative to control", "assay_type": "functional", "set-up": "scale not given: the % may be the effect or the level left", "conditions": "dose 16 µg/ml; time 2-4 hrs"}, "[2]": {"assay": "Inhibition of quorum sensing system in Pseudomonas aeruginosa PAO1 expressing lasB-gfp at 16 uM relative to control"}, "[3]": {"assay": "Inhibition of quorum sensing system in Pseudomonas aeruginosa PAO1-pqsA assessed as reduction in fluorescence intensity measured for 12 hrs by GFP reporter strain assay"}, "Pseudomonas aeruginosa [4]": {"test_system": "Pseudomonas aeruginosa", "assay": "Antivirulence activity against Pseudomonas aeruginosa PAO1 assessed as inhibition of pyocyanin production", "assay_type": "functional, organism-based"}, "Pseudomonas aeruginosa [5]": {"test_system": "Pseudomonas aeruginosa", "assay": "Antibacterial activity against Pseudomonas aeruginosa PAO1 assessed as bacterial growth inhibition after 20 hrs by liquid microdilution method", "assay_type": "functional, organism-based", "conditions": "PAO1, 20 h"}, "Pseudomonas aeruginosa [6]": {"test_system": "Pseudomonas aeruginosa", "assay": "Antivirulence activity against Pseudomonas aeruginosa PAO1 assessed as reduction in pyocyanin production", "assay_type": "functional, organism-based"}, "Pseudomonas aeruginosa [7]": {"test_system": "Pseudomonas aeruginosa", "assay": "Antivirulence activity against Pseudomonas aeruginosa PAO1 assessed as reduction in elastase production", "assay_type": "functional, organism-based"}, "Pseudomonas aeruginosa [8]": {"test_system": "Pseudomonas aeruginosa", "assay": "Antivirulence activity against Pseudomonas aeruginosa PAO1 assessed as reduction in protease production", "assay_type": "functional, organism-based"}, "Pseudomonas aeruginosa [9]": {"test_system": "Pseudomonas aeruginosa", "assay": "Antimicrobial activity against Pseudomonas aeruginosa PAO1 assessed as reduction in bacterial growth measured for 24 hrs by broth micro-dilution method", "assay_type": "functional"}}, "data": [{"smiles": "CCCCCCC/C=C\\C(=O)O", "values": [{"measurement": "Activity", "setting": "Pseudomonas aeruginosa [1]", "result": 8, "unit": "%"}, {"measurement": "inhibition", "setting": "[2]", "result": 44, "unit": "%"}]}, {"smiles": "CC(C)=CCC/C(C)=C/CC/C(C)=C/CO", "note": "[FARNESOL]", "values": [{"measurement": "IC50", "setting": "[3]", "result": 0.14, "unit": "µg/mL"}, {"measurement": "IC50", "setting": "Pseudomonas aeruginosa [4]", "result": 1.11, "unit": "µg/mL"}]}, {"smiles": "COc1c(O)cc(O)c2c(=O)cc(-c3ccccc3)oc12", "note": "[WOGONIN]", "values": [{"measurement": "IC50", "setting": "Pseudomonas aeruginosa [5]", "result": 15, "unit": "µg/mL"}, {"measurement": "IC50", "setting": "Pseudomonas aeruginosa [6]", "result": 15, "unit": "µg/mL"}, {"measurement": "IC50", "setting": "Pseudomonas aeruginosa [7]", "result": 15, "unit": "µg/mL"}, {"measurement": "IC50", "setting": "Pseudomonas aeruginosa [8]", "result": 15, "unit": "µg/mL"}]}, {"smiles": "Fc1ccc(-c2nn(-c3ccc(Cl)cc3)cc2-c2nc(-c3ccccc3)c(-c3ccccc3)[nH]2)c(Br)c1", "values": [{"measurement": "MIC", "setting": "Pseudomonas aeruginosa [9]", "result": 63, "unit": "µg/mL"}]}]}
